The values below come from patent publication US9173935B2, “Phospholipid drug analogs” (Telormedix SA, priority 2010, dated 2015).

Like-named read-outs stand apart in the source and are kept apart here.

In general, IC50 refers to the midpoint of a concentration-inhibition curve.

Data set [1] deals with receptors associated with pain-related syndromes (e.g. adenosine and sodium channel). The data set is described as follows: Radioligand binding assay among 73 primary molecular targets. The settings on record: SC12 at fixed concentration of 30 microM.
The test system of data set [2] is PBMCs. As to the kind of experiment: IL-6 and TNF-alpha secretion in PBMCs from three donors (ELISA). The settings on record: Homo sapiens, PBMC. It is filed as cell-based, human. On the procedure:
EC50 values were determined for control and each drug candidate for IL-6 and TNF-alpha secretion. […] The cells were treated with TLR7 agonists for 24 hours in 7 doses. The conditioned media was removed for ELISA analyses for IL-6 and TNF-alpha, and cell survival determined by the XTT method according to the protocol from the supplier. […] Concentrations of IL-6 and TNF-alpha were determined by ELISA from R&D Systems using the Microsoft Excel Software. The results were analyzed in Graph Pad Prism in order to prepare dose-response curves, and for determination of EC50 values.
A general note: In an ELISA, binding on a coated surface is turned into a signal by an enzyme label.

The subject of data set [3] is human PBMCs. The data set is described as follows: IL-6 secretion in human PBMCs, two batches of Compound A and SC12. The settings on record: Homo sapiens, PBMC, 24 h. It is filed as cell-based. On the procedure:
PBMCs were purified from two donors and plated into 96 well plates at 2×10^5 cells/well in RPMI media including human 2% heat inactivated AB serum, glutamine, Pen-strep and R-mercapto-ethanol. The cells were treated with TLR7 agonists for 24 h in 4 doses. The conditioned media was removed for ELISA analyses for IL-6, and the EC50 value determined for each compound and each batch.
All compounds were tested in four concentrations (10-1-0.1-0.01 micromolar).
Concentrations of IL-6 were determined by ELISA from R&D Systems using the Microsoft Excel software. The results were analyzed in Graph Pad Prism in order to prepare dose-response curves, and for determination of EC50 values.

Data set [4] concerns whole blood. The data set is described as follows: Cytokine secretion in human whole blood assay (ELISA). It is filed as cell-based. On the procedure: A volume of approximately 55 mL fresh whole blood was drawn in heparinized Vacutainers from three healthy adult anonymous volunteers as described (J. A. Ida, Journal of Immunol Methods, 310, 2006, 86-99). […] Before drawing the blood, the compounds were added to 96 well round bottom plates in a 10× diluted sample at 20 ul. The compounds were diluted in RPMI media without serum but with antibiotics. Antibiotics were added at a 10× concentration. After drawing the blood, the whole blood sample was gently mixed to obtain a homogeneous sample, and 180 ul was added to each well.
After 6 hours and 24 hours incubation, plasma was removed for ELISA (IL-6, IL-10, IL-12p40 and IFN-alpha). ELISA was made at the 6 and 24 hours time point for all concentrations. After 24 hours incubation with selected compound concentrations, cells were analyzed for activation markers by FACS.
All compounds were setup in concentrations at 0-0.01-0.03-0.1-0.5-2.0-10.0 micromolar as the final concentration. Vehicle control was DMSO control, where we used the highest concentration used for the compounds. After addition of blood, all plates were gently agitated at 37° C. and 5% CO2 until harvest. The samples were removed after 6 or 24 hours incubation, and pooled into appropriate tubes (2 ml).
Concentrations of cytokines were determined by ELISA from R&D Systems. The results were analyzed in Graph Pad Prism in order to prepare dose-response
curves, and for determination of EC50 values. FACS analysis was made by using Becton-Dickinson FACSDiva software and subsequently illustrated in Graph Pad Prism.

The subject of data set [5] is HLA-DR+/CD20+ B cells. As to the kind of experiment: FACS analysis of B cell activation (CD40) in whole blood. The settings on record: 24 hours, 2 and 10 uM, three donors. The format is cell-based, human. On the procedure: (§1) A flow cytometric analysis was performed on whole blood from three donors after treatment with two compound concentrations for 24 h. The FACS analysis for donor 1 and donor 2 was made on another day than donor 3. The compound concentrations were as follows:
B cell activation: 2 and 10 uM
(§2) The FACS analysis was used to identify whether the test compounds could induce activation of B cells, and two different subsets of dendritic cells, namely the myeloid CD11c+/CD123− DCs and the plasmacytoid CD11c−/CD123+ DCs. The following markers were studied to identify the activation status of the different subsets:
(§3) The FACS staining was performed according to the manufacturer's instructions. Lysis of red blood cells was performed before FACS staining in order to minimize auto-florescence. To include as many B cells and DCs in the study as possible the FACS analyses were performed on 500,000 cells in total for each staining. A P1 gate was set only to include relevant cells on FSC vs. SSC (see FIGS. 12-15). The results of the individual analysis were present as Mean Fluorescence Intensity
The analysis of expression of the activation marker CD40 on B cells was made on double positive HLA-DR (MHC class II) (P4 gate) and CD20 cells (B cell marker) (P8 gate).

Data set [6] concerns HLA-DR+/CD11c+/CD123- mDCs. The data set is described as follows: FACS analysis of myeloid DC activation in whole blood. The format is cell-based, human. The settings on record: 24 hours, 0.1 and 0.5 uM, three donors. On the procedure:
as §1, §2, §3
The analysis of myeloid DCs was based on HLA-DR+/CD11c+/CD123-cells, thus all analyzed cells was included in the HLA-DR+ (P3) gate and CD11c+/CD123− (Q4) gate (see gates in FIGS. 13-15).
(In general: Flow cytometry measures light scatter and fluorescence of single cells or particles in a stream.)

The subject of data set [7] is AY-27 rat bladder cancer cell-line.
For data set [8], the system named is Raw264.7 mouse macrophage cell line. The data set is described as follows: IL-6 and TNF-alpha secretion in Raw264.7 cells (ELISA). The format is cell-based. The settings on record: Mus musculus, RAW264.7, 24 hours treatment, 7 doses. On the procedure:
EC50 values were determined for control and each drug candidate for IL-6 and TNF-alpha secretion. […] The cells were plated in 96 well plates and treated with TLR7 agonists for 24 hours in 7 doses. The conditioned media was removed after 24 hours for ELISA analyses. The cells were subsequently assayed for viability using the XTT assay according to the guidelines from the supplier. […] The experiment was performed in quadruplicate wells for each testing series, and the supernatant pooled and measured by ELISA in triplicates. Concentrations of IL-6 and TNF-alpha were determined by ELISA from R&D Systems using the Microsoft Excel Software. The results were analyzed in Graph Pad Prism in order to prepare dose-response curves, and for determination of EC50 values.

In data set [9] the target is CYP2E1 (Homo sapiens (Human), UniProt P05181). The data set is described as follows: Fluorescent High Throughput P450 assay, CYP2E1. The settings on record: substrate MFC; read-out: CYP2E1 IC50 (Mean ± S.D.). The format is biochemical.
Protocol: Inhibition of the P450 isoforms was measured in specific assays using specific substrates that become fluorescent upon CYP metabolism. Compounds, dissolved in ACN (acetonitrile) (CYP2E1, CYP2C8, CYP2B6, CYP3A5) or DMSO (all remaining isoforms), were tested in duplicate (n=2) in concentration-response curves (eight concentrations) in a 96-well plate containing incubation/NADPH regenerating buffer. Specific isoenzymes and substrates were added and incubated at 37° C. Reactions were terminated at different times, depending on the assays, and plates read on a Fluoroskan Ascent at the appropriate emission/excitation wavelengths. Concentration-response curves performed in duplicate for known inhibitors for each isoenzyme were tested in every assay as positive control.
The mark [10] stands for this setting: day 12, group 1 Imiquimod 0.1%, group 2 SC12 0.38%.

CYP2E1, sequence (P05181 whole entry, looked up): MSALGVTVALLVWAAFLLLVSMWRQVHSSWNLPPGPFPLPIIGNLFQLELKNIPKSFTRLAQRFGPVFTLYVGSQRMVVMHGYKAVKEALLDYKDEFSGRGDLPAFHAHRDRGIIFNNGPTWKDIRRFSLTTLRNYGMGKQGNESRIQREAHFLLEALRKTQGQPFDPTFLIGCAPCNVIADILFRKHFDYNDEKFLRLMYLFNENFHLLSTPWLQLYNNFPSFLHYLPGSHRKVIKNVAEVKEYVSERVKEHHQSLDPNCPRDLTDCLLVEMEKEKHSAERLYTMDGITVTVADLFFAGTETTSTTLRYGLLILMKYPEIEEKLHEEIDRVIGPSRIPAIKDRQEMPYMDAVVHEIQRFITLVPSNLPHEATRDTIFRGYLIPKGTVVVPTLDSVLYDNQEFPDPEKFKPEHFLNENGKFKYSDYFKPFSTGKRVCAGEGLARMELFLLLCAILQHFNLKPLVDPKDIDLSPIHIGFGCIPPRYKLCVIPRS

Consider `CC(C)Cn1cnc2c(N)nc3ccccc3c21` [Imiquimod, reference compound], for which the “Binding to receptors associated with pain-related syndromes” value in data set [1] is “shown to bind”. Moreover, the EC50 in data set [2] (24 h, Donor 1, 24 hours, read-out: IL-6 secretion MC50) was determined as 6.35 µM; in [2] (24 h, Donor 1, 24 hours, read-out: TNFa secretion MC50), 3.07 µM; in data set [2] (24 h, Donor 2, 24 hours, read-out: IL-6 secretion MC50), 1.99 µM; in data set [2] (24 h, Donor 2, 24 hours, read-out: TNFa secretion MC50), 24.9 µM; in [2] (24 h, Donor 3, 24 hours, read-out: IL-6 secretion MC50), 4.64 µM; in [2] (24 h, Donor 3, 24 hours, read-out: TNFa secretion MC50) it was 22.4 µM. The EC50 in data set [2] (D1, first experiments on three donors, read-out: EC50 values, IL-6 secretion) came out at 6.35 µM; in data set [2] (D2, first experiments on three donors, read-out: EC50 values, IL-6 secretion), 1.99 µM; in data set [2] (D3, first experiments on three donors, read-out: EC50 values, IL-6 secretion), 4.64 µM; in data set [2] (average of three donors, read-out: IL-6 secretion Average EC50), 4.33 µM; in [2] (average of three donors, read-out: TNFa secretion Average EC50), 16.8 µM; in [3] (Donor 1, 4 doses), 18 µM. For the same compound, the EC50 turned out to be 18.4 µM in data set [3] (Donor 2, 4 doses); 2 µM in data set [8] (read-out: EC 50 IL 6); 2.16 µM in [8] (read-out: EC 50 TNF-alpha). Also, the IL-6 secretion induced entry in data set [4] (6 h incubation, up to 10.0 micromolar) is “low and insignificant amounts of IL-6”. In addition, in data set [4] (6 hours incubation), the IFN-alpha secretion induced result was “did not induce IFN-alpha secretion”. Besides, in [4] (6 hours incubation), the IL-10 production result is given as “no IL-10 production was seen”. Moreover, the figures for the IL-12p40 secretion induced result in [4] (6 hours incubation) and in [4] (24 hours incubation) were “did not induce IL-12p40 secretion” and “did not induce IL-12p40”, respectively. The “CD40 expression (MFI) on B cells” value in data set [5] is given as “increased expression in all three donors”. The “CCR7 expression on mDCs” value in data set [6] is “showed high CCR7 expression”. Besides, the “CD80 expression on mDCs” value in data set [6] is “weak expression of CD80 in donor 1 and 2”. Also, the “Number of rats with a tumor positive bladder” value in data set [7] (day 12) was 9 of 14. In [7] (setting [10]), the “Rats with pT2 Tumor, number (% of 14)” value is given as 9 (64.3%). In addition, the “Tumor free rats, number (% of 14)” value in data set [7] (setting [10]) is recorded as 5 (35.7%). In [7] (day 12, intravesical 0.5 ml on day 2 and 5, group 1 Imiquimod 0.1%, group 2 SC12 0.38%), the “Mean weight of the rat bladders” value came out at 0.1201 grams. Moreover, in [7] (group 1 Imiquimod 0.1%, group 2 SC12 0.38%), the “Mean number of tumors per rat bladder” value worked out at 1.71. In data set [7] (intravesical instillation day 2 and 5), the Signs of toxicity result is “No signs of toxicity”. Further, the Mean invasion depth in data set [7] (tumor positive bladders, group 1 Imiquimod 0.1%, group 2 SC12 0.38%) is recorded as 1.3333 mm.

With `CCN(CC)C(=S)S` [DDTC, reference compound], the half-inhibitory concentration (IC50) in [9] is 0.85 ± 0.01 µM.
